Test systems include OVCAR-8 ovarian; SK-MEL-5 melanoma; UACC-62 melanoma; UO-31 renal; SN12C renal; OVCAR-5 ovarian; MCF7 breast; HS 578T breast; T-47D breast; HCC-2998 colon.
What all share (experiment): inhibition of tumour cell growth, NCI panel, 48 h

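Exposure lasted 48 hours, with cells grown in 96-well plates and compounds tested at five concentrations. At the TGI there is no net growth.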 Where a SMILES comes first, the peptide text is derived from it. [ ]: non-standard residue; d: D form. The star is where a group is joined. ξ: configuration not given here. ξF = NC(Cc1ccccc1)C(=O)O; Cbz = O=C(OCc1ccccc1)*; Aib = CC(C)(N)C(=O)O; NHNH2 = NN* Bounds are passed on as bounds.

As for `O=c1[nH]c2ccccc2c(=O)n1/N=C/c1ccc(O)cc1`, the TGI in the assay with OVCAR-8 ovarian, in the assay with SK-MEL-5 melanoma, in the assay on UACC-62 melanoma, with UO-31 renal, in the assay on SN12C renal and with OVCAR-5 ovarian was more than 100 µM in each case. Also, the TGI was more than 100 µM in the assay on MCF7 breast, 74.6 µM with HS 578T breast and more than 100 µM with T-47D breast.
In the case of `Cc1c(N2C(=O)/C(=C/c3ccc(Cl)cc3)N=C2c2ccccc2)c(=O)n(-c2ccccc2)n1C`, the TGI with OVCAR-8 ovarian was more than 100 µM; in the assay on SK-MEL-5 melanoma it was 34.3 µM; in the assay with UACC-62 melanoma, 47.1 µM; with UO-31 renal it was 93.7 µM; in the assay with SN12C renal, more than 100 µM; with OVCAR-5 ovarian it was more than 100 µM. In addition, the TGI in the assay on MCF7 breast and in the assay with T-47D breast was more than 100 µM throughout.
Take `CC(C)(NC(=O)OCc1ccccc1)C(=O)NC(Cc1ccccc1)C(=O)NN` (stereo not given) (Cbz-[Aib]-[ξF]-NHNH2): the TGI in the assay on OVCAR-8 ovarian, with SK-MEL-5 melanoma, with UACC-62 melanoma, with UO-31 renal, in the assay with SN12C renal and with OVCAR-5 ovarian was more than 100 µM in each case. Also, the TGI with MCF7 breast, with HS 578T breast and in the assay on T-47D breast was more than 100 µM in each case.
As to `CC1(C)O[C@@H]([C@H](O)CO)[C@H](O)[C@@H](C2SCCCS2)O1`, the TGI in the assay on OVCAR-8 ovarian, in the assay with SK-MEL-5 melanoma, with UACC-62 melanoma, with UO-31 renal, in the assay with SN12C renal and in the assay with OVCAR-5 ovarian was more than 100 µM throughout. The TGI in the assay with MCF7 breast, in the assay on HCC-2998 colon and with T-47D breast was more than 100 µM in each case.
Regarding `CNNC1=NS(=O)(=O)c2cc(C#N)c(Cl)cc2S1`, the TGI in the assay on OVCAR-8 ovarian is more than 10 µM; in the assay with SK-MEL-5 melanoma it was more than 10 µM; in the assay with UACC-62 melanoma, more than 10 µM; in the assay on UO-31 renal it was 3.38 µM; with SN12C renal it was more than 10 µM; with OVCAR-5 ovarian, more than 10 µM. The TGI with HS 578T breast, with HCC-2998 colon and with T-47D breast was more than 10 µM throughout.
For `CC(Nc1ncc2c(n1)-c1ccccc1OC2)C(=O)O` (stereo not given), the TGI in the assay with OVCAR-8 ovarian, with SK-MEL-5 melanoma, with UACC-62 melanoma, in the assay on UO-31 renal, in the assay on SN12C renal and in the assay on OVCAR-5 ovarian was more than 100 µM throughout. Moreover, the TGI with MCF7 breast and in the assay on HS 578T breast was more than 100 µM in each case.
Turning to `CCc1n[nH]c(=O)n1/N=C/c1ccccc1O`, the TGI in the assay with OVCAR-8 ovarian, in the assay on SK-MEL-5 melanoma, in the assay on UACC-62 melanoma, in the assay on UO-31 renal, with SN12C renal and in the assay with OVCAR-5 ovarian was more than 100 µM in each case. Also, the TGI is more than 100 µM with MCF7 breast, 99 µM in the assay on HS 578T breast and more than 100 µM in the assay on HCC-2998 colon.
As for `C=CCn1c(-c2ccc([N+](=O)[O-])cc2)cs/c1=N\C(P(=O)(O)O)P(=O)(O)O`, the TGI in the assay on OVCAR-8 ovarian, in the assay on SK-MEL-5 melanoma, with UACC-62 melanoma, with UO-31 renal, in the assay on OVCAR-5 ovarian and with MCF7 breast was more than 100 µM each time. For the same molecule, the TGI in the assay with HS 578T breast and in the assay on HCC-2998 colon was more than 100 µM throughout.
Take `N#CC(C(=O)c1cccnc1Cl)c1nc2cc(C(F)(F)F)ccc2s1` (stereo not given): the TGI with OVCAR-8 ovarian, with SK-MEL-5 melanoma, with UO-31 renal, in the assay on SN12C renal, in the assay with OVCAR-5 ovarian and in the assay with T-47D breast was more than 100 µM each time.
Consider `COC(=O)C(NC(=O)C(CC(=O)OC(C)(C)C)NC(=O)OC(C)(C)C)C(O)c1ccccc1` (stereo not given), for which the TGI with OVCAR-8 ovarian was more than 100 µM; with SK-MEL-5 melanoma, more than 100 µM; with UACC-62 melanoma it was 70.8 µM; in the assay on UO-31 renal, more than 100 µM; in the assay on SN12C renal it was more than 100 µM; in the assay on OVCAR-5 ovarian, more than 100 µM. In addition, the TGI with MCF7 breast, with HS 578T breast and in the assay with T-47D breast was more than 100 µM throughout.
On to `CCc1ccccc1N=NC(=O)NNc1ccccc1CC`, for which the TGI in the assay with OVCAR-8 ovarian was determined as 32.8 µM; in the assay on SK-MEL-5 melanoma, 28.6 µM; in the assay on UACC-62 melanoma it was 23 µM; with UO-31 renal, 39.8 µM; in the assay with SN12C renal, 35.7 µM; with OVCAR-5 ovarian, 29.4 µM. Further, the TGI in the assay on MCF7 breast is 36.3 µM; in the assay with HCC-2998 colon, 29.9 µM; with T-47D breast, 32.2 µM.
With `Cc1nc(N)c(N2CCN(C(=O)O)CC2)c(=O)[nH]1`, the TGI in the assay on OVCAR-8 ovarian, in the assay on UO-31 renal, with SN12C renal, in the assay with OVCAR-5 ovarian, in the assay with MCF7 breast and with HS 578T breast was more than 100 µM in each case. Also, the TGI in the assay with HCC-2998 colon and in the assay with T-47D breast was more than 100 µM each time.
As to `OC(c1ccc(F)cc1)C(F)(F)c1nc2ccccc2o1` (stereo not given), the TGI with OVCAR-8 ovarian, in the assay with SK-MEL-5 melanoma, in the assay with UACC-62 melanoma, in the assay on UO-31 renal, in the assay on MCF7 breast and with HCC-2998 colon was more than 100 µM throughout. The TGI in the assay with T-47D breast was more than 100 µM.
As to `C[C@@H](c1ccccc1)n1c(N)c(-c2ccccn2)c2ccc([N+](=O)[O-])cc2c1=O`, the TGI in the assay with OVCAR-8 ovarian, in the assay on SK-MEL-5 melanoma, with UACC-62 melanoma, with UO-31 renal, with SN12C renal and in the assay with HS 578T breast was more than 100 µM each time. In addition, the TGI in the assay with HCC-2998 colon and in the assay on T-47D breast was more than 100 µM in each case.
On to `CCCNC(=S)/N=C/c1c(O)cc(C)oc1=O`, for which the TGI with OVCAR-8 ovarian, with SK-MEL-5 melanoma, with UACC-62 melanoma, in the assay on UO-31 renal, with SN12C renal and in the assay with OVCAR-5 ovarian was more than 100 µM each time. Further, the TGI with MCF7 breast, in the assay with HCC-2998 colon and in the assay on T-47D breast was more than 100 µM throughout.

(Values after PubChem BioAssay (NCI).)
